30 compounds from ChEMBL document CHEMBL5244255, “An insight on medicinal attributes of 1,2,4-triazoles” (Eur J Med Chem, 2020) can be followed below.

Structures are written as SMILES. ≈ marks a conversion by molar mass, not a printed value.

As a reminder, the IC50 is the concentration needed to halve the response being measured. What is called MIC is the lowest concentration that inhibits growth of the organism. What is called EC50 is the concentration at which the effect is half-maximal. The term MIC80 denotes an inhibitory concentration at the 80% level, which refers to growth in some studies and to a panel of isolates in others.

One test relates to MDA-MB-231. Briefly: Antiproliferative activity against human MDA-MB-231 cells assessed as cell growth inhibition by MTT assay. Format: functional, cell-based.
Test [1] relates to Mycobacterium tuberculosis. Briefly: Antimycobacterial activity against Mycobacterium tuberculosis H37Rv measured […] by MABA assay. Format: functional.
Test [2] concerns Mycobacterium tuberculosis. Briefly: Potency index, ratio of test compound MIC to Pyrazinamide MIC for antimycobacterial activity against Mycobacterium tuberculosis H37Rv. The format is functional.
The subject of test [3] is Xanthomonas oryzae pv. oryzae. The experiment in a line: Antibacterial activity against Xanthomonas oryzae pv. oryzae assessed as bacterial growth inhibition. Format: functional, organism-based.
Test [4] deals with Mycobacterium tuberculosis. The experiment in a line: Antimycobacterial activity against Mycobacterium tuberculosis H37Rv measured after 21 days. Format: functional. The conditions noted are these: 504 h, time 21 day.
For another test, the system named is Leishmania major. Briefly: Antileishmanial activity against promastigotes stage of Leishmania major. The format is functional, organism-based.
The next test has as its system Staphylococcus aureus. Briefly: Antibacterial activity against Staphylococcus aureus assessed as bacterial growth inhibition incubated for 16 hrs. The format is functional.
A further test relates to Candida albicans. The experiment in a line: Antifungal activity against Candida albicans Y0109 assessed as fungal growth inhibition. The format is functional.
Test [5] concerns Mycobacterium tuberculosis. Briefly: Antimycobacterial activity against Mycobacterium tuberculosis H37Rv. The format is functional.
Another test has as its system DU-145. Briefly: Anticancer activity against human DU-145 cells assessed as cell growth inhibition incubated for 48 hrs by MTT assay. The settings on record: DU-145, 48 h. Format: functional, cell-based.
Another test relates to A549. The experiment in a line: Anticancer activity against human A549 cells assessed as cell growth inhibition incubated for 48 hrs by MTT assay. Format: functional, cell-based. The conditions noted are these: A549, 48 h. (In general: Tetrazolium assays rely on reduction of a dye to a coloured formazan, in cell work by metabolically active cells.)
The test system of a further test is BT-20. Briefly: Anticancer activity against human BT-20 cells assessed as cell growth inhibition incubated for 48 hrs by MTT assay. Format: functional, cell-based. The settings on record: BT-20, 48 h.
The nature of test [6]: Anticancer activity against human SK-MEL-128 cells assessed as cell growth inhibition incubated for 48 hrs by MTT assay. Format: functional, cell-based. The settings on record: SK-MEL-128, 48 h.
A further test relates to Plasmodium falciparum. Briefly: Antimalarial activity against Plasmodium falciparum. The format is functional, organism-based. The settings on record: Plasmodium falciparum; read-out: IC50.
The next test relates to RS4-11. Briefly: Antiproliferative activity against human RS4-11 cells assessed as cell growth inhibition incubated for 48 hrs by MTT assay. Format: functional, cell-based. The settings on record: RS4-11, 48 h.
The test system of another test is HT-29. The experiment in a line: Antiproliferative activity against human HT-29 cells assessed as cell growth inhibition incubated for 48 hrs by MTT assay. The conditions noted are these: HT-29, 48 h. Format: functional, cell-based.
For the next test, the system named is Jurkat. Briefly: Antiproliferative activity against human jurkat cells assessed as cell growth inhibition incubated for 48 hrs by MTT assay. The format is functional, cell-based.
A further test has as its system MCF7. The experiment in a line: Antiproliferative activity against human MCF7 cells assessed as cell growth inhibition incubated for 48 hrs by MTT assay. The format is functional, cell-based. The conditions noted are these: MCF7, 48 h.
The subject of a further test is HeLa. Briefly: Antiproliferative activity against human HeLa cells assessed as cell growth inhibition incubated for 48 hrs by MTT assay. The format is functional, cell-based.
Test [7] can be described thus: Inhibition of Mycobacterium tuberculosis shikimate dehydrogenase.
In test [8] the test system is Mycobacterium tuberculosis. The experiment in a line: Antimycobacterial activity against Mycobacterium tuberculosis H37Rv measured after 8 to 9 days. The format is functional. The settings on record: time 8-9 day.

In the case of `Cc1nn(-c2ccccc2)c(=O)n1-n1c(-c2cc3ccccc3oc2=O)cs/c1=N\c1ccccc1`, the IC50 in the test on MDA-MB-231 was 0.16 µg/mL (≈ 0.324 µM). As for `COc1ccc(-n2ncn(Cc3cn(Cc4cc(=O)oc5ccc(C)cc45)nn3)c2=O)cc1`, the lowest concentration to inhibit growth in test [1] (MIC) was 1.6 µg/mL (≈ 3.6 µM). Besides, the Ratio in test [2] came to 2. For the compound `COc1cccc(NC(=O)CSc2nnc(C3CCN(c4ncnc5ccccc45)CC3)n2-c2ccccc2)c1`, the concentration giving a half-maximal response (EC50) in test [3] is 34.5 µg/mL (≈ 62.5 µM). Consider `Cc1nn(-c2ccccc2)c(=O)n1-n1c(-c2cc3ccccc3oc2=O)cs/c1=N\c1ccc(Cl)cc1`, for which, in the test with MDA-MB-231, the IC50 was determined as 0.16 µg/mL (≈ 0.303 µM). The compound `CC(C)=CCC/C(C)=C/COc1ccc(/C=C/c2nnc3c4ccccc4cnn23)cc1` gave an MIC in [4] of 0.5 µg/mL (≈ 1.18 µM). In test [1], `COc1ccc(-n2ncn(Cc3cn(Cc4cc(=O)oc5cc(C)ccc45)nn3)c2=O)cc1` had an MIC of 1.6 µg/mL (≈ 3.6 µM). In addition, in test [2], the Ratio stood at 2.

Take `COc1ccc(-n2ncn(Cc3cn(Cc4cc(=O)oc5ccc(C(C)(C)C)cc45)nn3)c2=O)cc1`: inhibition of growth in [1] (MIC) required 1.6 µg/mL (≈ 3.29 µM). Also, in test [2], the Ratio worked out at 2. In the test with Leishmania major, `CCCCCCCCCCCCCCCCOP(=O)([O-])OCC[N+](C)(C)C` [MILTEFOSINE] registered an IC50 of 3.19 µg/mL (≈ 7.83 µM).

With `COc1ccc(/C=N/n2c(S)nnc2CNC(=O)c2ccccc2)cc1`, the minimum inhibitory concentration (MIC) in the test with Staphylococcus aureus came out at 3.12 µg/mL (≈ 8.5 µM). Compound `CCCCCCCCCNC(=O)Cc1nnc2c3ccccc3cnn12` registered an MIC in test [4] of 0.5 µg/mL (≈ 1.41 µM). For `CCCCCCC(=O)OC1CCN(CC(O)(Cn2cncn2)c2ccc(F)cc2F)CC1` (stereo unspecified), the MIC80 with Candida albicans came to 9 nM (≈ 4.05 ng/mL). Regarding `CC1CCC(O)(c2nnc(-c3ccncc3)[nH]2)CC1` (stereo unspecified), it took 0.59 µg/mL (≈ 2.28 µM) to inhibit growth in [5] (MIC). In [1], `COc1ccc(-n2ncn(Cc3cn(Cc4cc(=O)oc5ccc(Cl)cc45)nn3)c2=O)cc1` had a minimal inhibitory concentration (MIC) of 1.6 µg/mL (≈ 3.44 µM). Further, the Ratio in test [2] is given as 2. Turning to `Nn1c(Cc2ccc(Cl)c(Cl)c2)nn(CC(=O)NNC(=O)c2cc3cc(Cl)ccc3oc2=O)c1=O`, the IC50 (with DU-145; in the test on A549; with BT-20; in test [6]) was 3.1 µg/mL (≈ 5.76 µM) each time.

Consider `C=C(CCCC)C(=O)OC1CCN(CC(O)(Cn2cncn2)c2ccc(F)cc2F)CC1` (stereo unspecified), for which the MIC80 in the test on Candida albicans came to 9 nM (≈ 4.04 ng/mL).

For `OC1(c2nnc(-c3ccncc3)[nH]2)CCCCC1`, in test [5], the MIC is 0.59 µg/mL (≈ 2.42 µM).

As for `OC1CCC(C(O)c2nnc(-c3ccncc3)[nH]2)CC1O` (stereo unspecified), in [5], the MIC stood at 0.59 µg/mL (≈ 2.03 µM). Regarding `Brc1ccc(/C=C/c2nnc3c4ccccc4cnn23)cc1`, the minimal inhibitory concentration (MIC) in test [4] was determined as 0.5 µg/mL (≈ 1.42 µM). Take `O=C(CSc1nnc(C2CCN(c3ncnc4ccccc34)CC2)n1-c1ccccc1)Nc1ccc(F)cc1F`: in test [3], the 50% effective concentration (EC50) worked out at 34.5 µg/mL (≈ 61.9 µM). Same read-out and setting: for `O=C(CSc1nnc(C2CCN(c3ncnc4ccccc34)CC2)n1-c1ccccc1)Nc1cccc([N+](=O)[O-])c1` the value was 34.5 µg/mL (≈ 60.9 µM). As to `CC(C)C(=O)OC1CCN(CC(O)(Cn2cncn2)c2ccc(F)cc2F)CC1` (stereo unspecified), the MIC80 in the test on Candida albicans turned out to be 9 nM (≈ 3.68 ng/mL). In the case of `O=C(OC1CCN(CC(O)(Cn2cncn2)c2ccc(F)cc2F)CC1)C(F)(F)Cl` (stereo unspecified), the MIC80 in the test on Candida albicans was 9 nM (≈ 4.06 ng/mL).

On to `Nn1c(Cc2ccc(Cl)cc2)nn(CC(=O)NNC(=O)c2cc3cc(Cl)cc(Cl)c3oc2=O)c1=O`, for which the IC50 (in the test with DU-145; with A549; in the test with BT-20; in test [6]) was 3.1 µg/mL (≈ 5.76 µM) throughout. `O=c1cc(Cn2cc(Cn3cnn(-c4ccccc4)c3=O)nn2)c2c(ccc3ccccc32)o1`: the MIC in test [1] came to 1.6 µg/mL (≈ 3.55 µM). For the same compound, the Ratio in [2] was 2. Regarding `Cc1nn(-c2ccccc2)c(-n2cncn2)c1-c1cc(-c2ccc(-c3cccs3)cc2)cc2nc3ccccc3n12`, the half-maximal inhibitory concentration (IC50) with Plasmodium falciparum stood at 0.041 µg/mL (≈ 0.0746 µM). For the compound `C[C@@H]1[C@H](O)[C@@H](C)/C=C/C=C/C=C/C=C/C=C/C=C/C=C/[C@H](O[C@@H]2O[C@H](C)[C@@H](O)[C@H](N)[C@@H]2O)C[C@@H]2O[C@](O)(C[C@@H](O)C[C@@H](O)[C@H](O)CC[C@@H](O)C[C@@H](O)CC(=O)O[C@H]1C)C[C@H](O)[C@H]2C(=O)O` [AMPHOTERICIN B], in the test with Leishmania major, the half-maximal inhibitory concentration (IC50) came out at 0.0472 µg/mL (≈ 0.0511 µM). As to `COc1cc(C(=O)n2nc(-c3ccc(Br)cc3)nc2N)cc(OC)c1OC`, the IC50 with RS4-11, in the test with HT-29, with Jurkat, in the test with MCF7 and in the test on HeLa was less than 1000 nM each time. In test [7], `O=[N+]([O-])c1ccc(C2=Nn3c(nnc3-c3ccnc(F)c3)CC2)cc1` registered a half-inhibitory concentration (IC50) of 73.57 µg/mL (≈ 217 µM). The same compound showed an MIC in test [8] of 0.25 µg/mL (≈ 0.739 µM). On to `Cc1nn(-c2ccccc2)c(-n2cncn2)c1-c1cc(-c2ccccc2)cc2nc3ccccc3n12`, for which the IC50 in the test on Plasmodium falciparum was found to be 0.041 µg/mL (≈ 0.0877 µM). `O=C(CSc1nnc(C2CCN(c3ncnc4ccccc34)CC2)n1-c1ccccc1)Nc1cccc(F)c1`: the EC50 in test [3] came to 34.5 µg/mL (≈ 63.9 µM).
